{
  "source": "patent US20140187422A1",
  "about": "“Fungicidal substituted 1--1H-[1,2,4]triazole compounds” (BASF SE, priority 2011, published 2014)",
  "key": {"[1]": {"test_system": "Pyriculana oryzae", "assay_type": "cell-based", "conditions": "relative growth vs control (100%), 7 days after inoculation"}, "[2]": {"test_system": "Septoria tritici", "assay": "Microtest: activity against leaf blotch on wheat caused by Septoria tritici (Septtr)", "assay_type": "cell-based", "conditions": "relative growth vs active compound-free control (100%), 7 days after inoculation"}, "[3]": {"test_system": "Septoria tritici", "assay": "Green house: curative control of leaf blotch on wheat caused by Septoria tritici (Septtr K7)", "assay_type": "in vivo", "conditions": "sprayed 7 days after inoculation, % diseased leaf area, untreated control 80", "procedure": "The spray solutions were prepared in several steps: The stock solution were prepared: a mixture of acetone and/or dimethylsulfoxide and the wetting agent/emulsifier Wettol, which is based on ethoxylated alkylphenoles, in a relation (volume) solvent-emulsifier of 99 to 1 was added to 25 mg of the compound to give a total of 5 ml. Water was then added to total volume of 100 ml. This stock solution was diluted with the described solvent-emulsifier-water mixture to the given concentration. G1 Curative control of leaf blotch on wheat caused by Septoria tritici (Septtr K7) Leaves of pot-grown wheat seedling were inoculated with an aqueous spore suspension of Septoria tritici. Then the trial plants were immediately transferred to a humid chamber at 18-22° C. and a relative humidity close to 100%. After 4 days the plants were transferred to a chamber with 18-22° C. and a relative humidity close to 70%. Seven days after inoculation the plants were sprayed to run-off with an aqueous suspension of the active compound or their mixture, prepared as described. Then the plants were transferred back to the chamber with 18-22° C. and a relative humidity close to 70%. After 4 weeks the extent of fungal attack on the leaves was visually assessed as % diseased leaf area."}, "[4]": {"test_system": "Pyrenophora teres", "assay": "Microtiter test: activity against net blotch Pyrenophora teres on barley (Pyrnte)", "assay_type": "cell-based", "procedure": "M3 Activity against net blotch Pyrenophora teres on barley in the microtiter test ([…] stock solutions were mixed according to the ratio, pipetted onto a micro titer plate (MTP) and diluted with water to the stated concentrations. A spore suspension of Pyrenophora teres in an aqueous biomalt or yeast-bactopeptone-glycerine solution was then added. The plates were placed in a water vapor-saturated chamber at a temperature of 18° C. Using an absorption photometer, the MTPs were measured at 405 nm 7 days after the inoculation. The measured parameters were compared to the growth of the active compound-free control variant (100%) and the fungus-free and active compound-free blank value to determine the relative growth in % of the pathogens in the respective active compounds."}},
  "note": "Read-outs that look alike come from different tables or passages of the source.",
  "data": [
    {"molecule": "COC(Cn1cncn1)(c1ccc(Oc2ccc(Cl)cc2)cc1Cl)C1CC1", "note": "(stereo not shown) [I-1, 1-[2-[2-chloro-4-(4-chlorophenoxy)phenyl]-2-cyclopropyl-2-methoxy-ethyl]-1,2,4-triazole]", "values": [
      {"measurement": "Growth (%) at 0.5 ppm Pyrior", "setting": "[1]", "value": 21, "unit": "%"},
      {"measurement": "Growth (%) at 2 ppm Pyrior", "setting": "[1]", "value": 0, "unit": "%"},
      {"measurement": "Growth 0 (%) at 0.002 ppm Septtr", "setting": "[2]", "value": 10, "unit": "%"},
      {"measurement": "Disease (%) at 250 ppm Septtr K7", "setting": "[3]", "value": 1, "unit": "%"},
      {"measurement": "Growth (%) at 8 ppm Pymte", "setting": "[4]; relative growth vs control (100%), 7 days after inoculation", "value": 12, "unit": "%"}
    ]},
    {"molecule": "CCC(Cn1cncn1)(OC)c1ccc(Oc2ccc(Cl)cc2)cc1Cl", "note": "(stereo not shown)", "values": [
      {"measurement": "Growth (%) at 0.5 ppm Pyrior", "setting": "[1]", "value": 47, "unit": "%"},
      {"measurement": "Growth (%) at 8 ppm Pymte", "setting": "[4]", "value": 39, "unit": "%"}
    ]},
    {"molecule": "CC(O)(Cn1cncn1)c1ccc(Oc2ccc(Cl)cc2)cc1Cl", "note": "(stereo not shown)", "values": [
      {"measurement": "Growth (%) at 2 ppm Pyrior", "setting": "[1]", "value": 23, "unit": "%"},
      {"measurement": "Growth (%) at 8 ppm Pymte", "setting": "[4]", "value": 62, "unit": "%"}
    ]},
    {"molecule": "COC(Cn1cncn1)c1ccc(Oc2ccc(Cl)cc2)cc1Cl", "note": "(stereo not shown)", "values": [
      {"measurement": "Growth 0 (%) at 0.002 ppm Septtr", "setting": "[2]", "value": 72, "unit": "%"}
    ]}
  ]
}
